For data set [1] the following is noted: data source SDS, GHS hazard category for skin sensitizers or negative in a skin sensitization test, cited from earlier work.
A short description of data set [2]: LLNA (Local Lymph Node Assay), SI (Stimulus Index). Type of data set: in vivo. As to conditions: for Skin Sensitization Potential: judged from SI by LLNA; for SI (by LLNA): measured according to method of JP-2012-140593-A. An excerpt: In the present disclosure, compounds having skin sensitization potential refer to those determined to be positive in a skin sensitization test. Hereinafter, such compounds may also be referred to as “skin-sensitizing compounds” or “skin sensitizers”. The skin sensitization test is not limited to a specific test. As an example of the skin sensitization test, LLNA (Local Lymph Node Assay) is known that evaluates the degree of sensitization potential by SI (Stimulus Index). SI of 3 or more is determined to be positive.
Skin sensitization information described in Table 1 was obtained from SDSs available in Japan or other countries. SI (determined by LLNA) values described in Table 1 were measured according to a method described in JP-2012-140593-A.

Read-outs that look alike come from different tables or passages of the source.

Turning to `C=CC(=O)NCCO` [(A-2), N-(2-Hydroxyethyl)acrylamide], the “Skin Sensitization Potential” value is recorded as “Negative” in data set [1] and “negative” in data set [1] (listed as HEAA).
Turning to `C=C(C)C(=O)OCC(C)(C)COC(=O)C(=C)C` [(A-5), Neopentyl glycol dimethacrylate], in data set [2], the “Skin Sensitization Potential” value was “Negative” and the “SI (by LLNA)” value is listed as “SI = 2.0”. For the same compound, in data set [2] (listed as neopentyl glycol dimethacrylate), the “Skin Sensitization Potential” value is reported as “non-skin-sensitizing”.
As for `Cc1cc(C)c(C(=O)P(=O)(c2ccccc2)c2ccccc2)c(C)c1` [(B1-1), Diphenyl(2,4,6-trimethylbenzoyl)phosphine oxide], the figures for the “Skin Sensitization Potential” value in data set [1] and in data set [1] (listed as IRGACURE TPO) were 1B and “sub-category 1B”, respectively.
On to `Cc1cc(C)c(C(=O)P(=O)(C(=O)c2c(C)cc(C)cc2C)c2ccccc2)c(C)c1` [(B1-2), Phenylbis(2,4,6-trimethylbenzoyl)phosphine oxide], for which the “Skin Sensitization Potential” value in data set [1] was “Category 1”; in data set [1] (listed as IRGACURE 819), “category 1”.
As to `CCCCCCC(=NOC(=O)c1ccccc1)C(=O)c1ccc(Sc2ccccc2)cc1` [(B1-3), 1-[4-(Phenylthio)phenyl]octane-1,2-dione 2-(o-benzoyloxime)], the “Skin Sensitization Potential” value in data set [1] is on record as “Category 1”; in data set [1] (listed as IRGACURE OXE01), “category 1”.
Consider `CCn1c2ccc(C(=O)c3ccccc3C)cc2c2cc(C(C)=NOC(C)=O)ccc21` [(B1-4), 1-[9-Ethyl-6-(2-methylbenzoyl)-9H-carbazole-3-yl]ethanone o-acetyloxime], for which the “Skin Sensitization Potential” value in data set [1] is 1B; in data set [1] (listed as IRGACURE OXE02) it was “sub-category 1B”.
Turning to `CSc1ccc(C(=O)C(C)(C)N2CCOCC2)cc1` [(B2-1), 2-Methyl-1-[4-(methylthio)phenyl]-2-morpholinopropane-1-one], the “Skin Sensitization Potential” value in data set [1] is “Negative”; in data set [1] (listed as IRGACURE 907), “negative”.
Turning to `CCC(Cc1ccc(C)cc1)(C(=O)c1ccc(N2CCOCC2)cc1)N(C)C` (stereo not drawn) [(B2-2), 2-(Dimethylamino)-2-[(4-methylphenyl)methyl]-1-(4-morpholinophenyl)butane-1-one], the “Skin Sensitization Potential” value in data set [1] was “Negative”; in data set [1] (listed as IRGACURE 379), “negative”.
For the compound `O=C(c1ccccc1)C1(O)CCCCC1` [(B2-3), 1-Hydroxycyclohexyl phenyl ketone], the “Skin Sensitization Potential” value in data set [1] is reported as “Negative”; in data set [1] (listed as IRGACURE 184), “negative”.
Turning to `CC(C)(O)C(=O)c1ccc(OCCO)cc1` [(B2-4), 1-[4-(2-hydroxyethoxy)phenyl]-2-hydroxy-2-methylpropane-1-one], the “Skin Sensitization Potential” value is “Negative” in data set [1] and “negative” in data set [1] (listed as IRGACURE 2959).
Turning to “Tricyclodecane dimethanol dimethacrylate [(A-4)]”, the “Skin Sensitization Potential” value is reported as “Negative” in data set [2] and “non-skin-sensitizing” in data set [2] (listed as tricyclodecane dimethanol dimethacrylate). The “SI (by LLNA)” value in data set [2] is “SI = 1.3”.
